Reference: ChEMBL document CHEMBL3045924, “Synthesis, molecular docking, and cardioprotective activity of 2-methylthio-1,4-dihydropyrimidines” (2012)

Tests used:
Type in all cases: functional
[1] = system: Rattus norvegicus; experiment: (§1) Cardioprotective activity in adrenaline-induced MI Rattus norvegicus Sprague-Dawley (rat) model assessed as decrease in heart rate at 5 mg/kg, po for 15 days challenged with adrenaline on day 14 and day 15 measured after 24 hr post second adrenaline injection (reference value: 422.76 +/- 6.158 bpm)
[2] = system: Rattus norvegicus; experiment: as §1, with “effect on P-duration” for “decrease in heart rate”, “injection by ECG analysis” for “injection”, “0.01136” for “422.76”, “0.0044 sec)” for “6.158 bpm)”
[3] = system: Rattus norvegicus; experiment: as §1, with “ST interval” for “heart rate”, “injection by ECG analysis” for “injection”, “0.0829” for “422.76”, “0.0024 sec)” for “6.158 bpm)”
[4] = system: Rattus norvegicus; experiment: as §1, with “increase” for “decrease”, “R-R interval” for “heart rate”, “injection by ECG analysis” for “injection”, “0.135” for “422.76”, “0.0176 sec)” for “6.158 bpm)”
[5] = system: Rattus norvegicus; experiment: as §1, with “QT interval prolongation” for “heart rate”, “injection by ECG analysis” for “injection”, “0.08205” for “422.76”, “0.0023 sec)” for “6.158 bpm)”

Row | SMILES | Activity [1] | Time [2] | Time [3] | Time [4] | Time [5]
1 | CCOC(=O)C1=C(C)NC(SC)=NC1c1ccc([N+](=O)[O-])cc1 (stereo not given) | 315.766 bpm | 0.0166 s | 0.05879 s | 0.1852 s | 0.06664 s
2 | COC(=O)C1=C(C)NC(SC)=NC1c1ccc(Cl)cc1 (stereo not given) | 382.03 bpm | 0.01358 s | 0.0545 s | 0.1533 s | 0.03879 s
3 | COC(=O)C1=C(C)NC(C)=C(C(=O)OC)C1c1ccccc1[N+](=O)[O-] [NIFEDIPINE] | 278.5 bpm | 0.01815 s | 0.0455 s | 0.2146 s | 0.06101 s
